Values quoted from earlier work, collected in patent publication US20070072885A1, “BICYCLIC DERIVATIVES FOR THE TREATMENT OF ABNORMAL CELL GROWTH” (Pfizer Inc, priority 2005, published 2007).

Columns and labels:
[1] = test system: transplanted human mammary carcinoma which expresses epidermal growth factor receptor tyrosine kinase (EGFR); conditions: EGFR-expressing carcinoma in athymic nude mice
[2] = test system: another carcinoma which does not express the EGF receptor

Compound: O=CN/C=C/c1cc(O)ccc1O [erbstatin]
- growth of transplanted human mammary carcinoma [1]: selectively attenuates the growth
- growth of another carcinoma [2]: without effect
